Laboratory results: patent US12037302B1, “Compound for treatment of bacterial infections of different etiology in humans” (priority 2021, dated 2024)

What was measured:
Streptococcus pyogenes = assay: Comparative in vitro zone diameter test on Müler-Hinton-Agar; format: cell-based; details: amount used: novel compound 0.05 mL, Cephalosporin 0.1 mL, Ampicillin 0.2 mL
Description: (§1) Here are the findings of the comparative examination of selected pathogens against the novel compound and the antibiotics Cephalosporin and Ampicillin:
(§2) Evaluation of the results by zone diameter: • 0 mm to 4 mm: resistant: R • 5 mm to 9 mm: moderately sensitive: MS • 10 mm to 15 mm: sensitive: S • 16 mm to 20 mm: very sensitive: VS • 21 mm and more: extremely sensitive: ES

[1] = tested on: Salmonella typhimurium DT104; assay: as above; format: cell-based; details: amount used: novel compound 0.05 mL, Cephalosporin 0.1 mL, Ampicillin 0.2 mL
Description: as §1, §2

Staphylococcus aureus = assay: as above; format: cell-based; details: amount used: novel compound 0.05 mL, Cephalosporin 0.1 mL, Ampicillin 0.2 mL
Description: as §1, §2

Listeria monocytogenes = assay: as above; format: cell-based; details: amount used: novel compound 0.05 mL, Cephalosporin 0.1 mL, Ampicillin 0.2 mL
Description: as §1, §2

Streptococcus uberis = assay: as above; format: cell-based; details: amount used: novel compound 0.05 mL, Cephalosporin 0.1 mL, Ampicillin 0.2 mL
Description: as §1, §2

Streptococcus pneumoniae = assay: as above; format: cell-based; details: amount used: novel compound 0.05 mL, Cephalosporin 0.1 mL, Ampicillin 0.2 mL
Description: as §1, §2

Escherichia coli O157:H7 = assay: as above; format: cell-based; details: amount used: novel compound 0.05 mL, Cephalosporin 0.1 mL, Ampicillin 0.2 mL
Description: as §1, §2

mice [2] = assay: Acute toxicity LD50, intraperitoneal (i.p.) injection, mice; format: in vivo
Description: (§3) Both mice and rats were specially selected for the testing of the toxicity of the compounds, medicine, and chemicals. […] Groups of one hundred (100) lab mice and rats of both genders were placed into glass compartments. They were regularly consuming food manufactured for these lab animals. Water consumption was always available.
(§4) Intraperitoneal testing of the compound LD50 i.e. by pharmaceutical lab needle and syringe, designed for the easy application to the lab animals intraperitoneally.
Breathing and cardiac functions were regular, function of thorax was regular and without visual changes. Discomfort symptoms noticed after the applications, disappeared after 3-5 min, diverse from mouse to mouse.

rats [3] = assay: Acute toxicity LD50, peroral application (p.o.), rats; format: in vivo
Description: as §3
(§5) The peroral application (p.o.) acute toxicity LD50 testing was done using the standard procedure: application p.o. with the special lab pipette easy to administer liquid product: orally to the lab animals.
Breathing and cardiac functions were regular, function of thorax was regular and without visual changes. Discomfort symptoms noticed after the applications, disappeared after 1-3 min, diverse from rat to rat.

mice [4] = assay: Acute toxicity LD50, peroral application (p.o.), mice; format: in vivo
Description: as §3, §5
Breathing and cardiac functions were regular, function of thorax was regular and without visual changes. Discomfort symptoms were noticed after the applications, disappeared after 1-3 min, diverse from mouse to mouse.

rats [5] = assay: Acute toxicity LD50, intraperitoneal (i.p.) injection, rats; format: in vivo
Description: as §3, §4
Breathing and cardiac functions were regular, function of thorax was regular and without visual changes. Discomfort symptoms noticed after the applications, disappeared after 5-6 min, diverse from rat to rat.

| SMILES | R (evaluation by zone diameter) (Streptococcus pyogenes) | zone diameter (Streptococcus pyogenes) | R (evaluation by zone diameter) [1] | zone diameter [1] | R (evaluation by zone diameter) (Staphylococcus aureus) | zone diameter (Staphylococcus aureus) | R (evaluation by zone diameter) (Listeria monocytogenes) | zone diameter (Listeria monocytogenes) | R (evaluation by zone diameter) (Streptococcus uberis) | zone diameter (Streptococcus uberis) | R (evaluation by zone diameter) (Streptococcus pneumoniae) | zone diameter (Streptococcus pneumoniae) | R (evaluation by zone diameter) (Escherichia coli O157:H7) | zone diameter (Escherichia coli O157:H7) | further results |
| --- | --- | --- | --- | --- | --- | --- | --- | --- | --- | --- | --- | --- | --- | --- | --- |
| CC1(C)S[C@@H]2[C@H](NC(=O)[C@H](N)c3ccccc3)C(=O)N2[C@H]1C(=O)O [Ampicilin, Ampicillin] | R (0 mm to 4 mm: resistant: R) | 3 mm | MS (5 mm to 9 mm: moderately sensitive: MS) | 6 mm | R (0 mm to 4 mm: resistant: R) | 0 mm | MS (5 mm to 9 mm: moderately sensitive: MS) | 7 mm | R (0 mm to 4 mm: resistant: R) | 0 mm | R (0 mm to 4 mm: resistant: R) | 0 mm | MS (5 mm to 9 mm: moderately sensitive: MS) | 7 mm |  |
| CCN(CC)CC(=O)Nc1c(C)cccc1C.Cc1cc([N+](=O)[O-])c(C(C)C)c([N+](=O)[O-])c1O [Novel Compound, 2,4-dinitro-5-isopropyl-2-methylphenoxy-N-(2,6-dimethylphenylium)-N2,N2-diethylglycinamide] | ES (21 mm and more: extremely sensitive: ES) | 29 mm | ES (21 mm and more: extremely sensitive: ES) | 25 mm | ES (21 mm and more: extremely sensitive: ES) | 27 mm | ES (21 mm and more: extremely sensitive: ES) | 33 mm | ES (21 mm and more: extremely sensitive: ES) | 32 mm | ES (21 mm and more: extremely sensitive: ES) | 31 mm | ES (21 mm and more: extremely sensitive: ES) | 24 mm | Intraperitoneal LD50 (mice [2]; i.p.): over 1,550 μL/kg; animals that changed their behavior and demonstrated discomfort, running, anxiety (mice [2]; i.p., 1,550 μL/kg): 21 mice out of one hundred (100); time after which discomfort symptoms disappeared (mice [2]; i.p., 1,550 μL/kg): 3 to 5 min; toxicity conclusion (mice [2]; i.p., applied doses): low toxic; lethality during the test (mice [2]; i.p., doses up to 1,550 μL/kg): No mouse has ended lethally; toxicity conclusion (rats [3]; orally (p.o.), applied doses): low toxic; oral LD50 (rats [3]; p.o.): over 2,250 μL/kg; animals that changed their behavior and demonstrated light discomfort, running, anxiety (rats [3]; p.o., 2,250 μL/kg): 37 rats out of one hundred (100); time after which discomfort symptoms disappeared (rats [3]; p.o., 2,250 μL/kg): 1 to 3 min; lethality during the test (rats [3]; p.o., doses up to 2,250 μL/kg): No rat has ended lethally; toxicity conclusion (mice [4]; orally (p.o.), applied doses): low toxic; oral LD50 (mice [4]; p.o.): over 2,000 μL/kg; animals that changed their behavior and demonstrated light discomfort, running, anxiety (mice [4]; p.o., 2,000 μL/kg): 23 mice out of one hundred (100); time after which discomfort symptoms disappeared (mice [4]; p.o., 2,000 μL/kg): 1 to 3 min; lethality during the test (mice [4]; p.o., doses up to 2,000 μL/kg): No mouse has ended lethally; Intraperitoneal LD50 (rats [5]; i.p.): over 1,750 ML/kg; animals that changed their behavior and demonstrated discomfort, running, anxiety (rats [5]; i.p., 1,750 μL/kg): 29 rats out of one hundred (100); time after which discomfort symptoms disappeared (rats [5]; i.p., 1,750 μL/kg): 5 to 6 min; toxicity conclusion (rats [5]; i.p., applied doses): low toxic; lethality during the test (rats [5]; i.p., doses up to 1,750 μL/kg): No rat has passed lethally |
